Assay results reported in paper PMC7914897, “Cytotoxic Potential of a-Azepano- and 3-Amino-3,4-SeCo-Triterpenoids” (International Journal of Molecular Sciences, 2021).

Tests used:
[1] = tested on: HT29 (Colon cancer); assay: NCI-60 screen (SRB, 48 h); details: Homo sapiens
[2] = tested on: CCRF-CEM (Leukemia); assay: NCI-60 screen (SRB, 48 h); details: Homo sapiens
[3] = tested on: HOP-62 (NSC lung cancer); assay: NCI-60 screen (SRB, 48 h); details: Homo sapiens
[4] = tested on: SW-620 (Colon cancer); assay: NCI-60 screen (SRB, 48 h); details: Homo sapiens
[5] = tested on: NCI-H522 (NSC lung cancer); assay: NCI-60 screen (SRB, 48 h); details: Homo sapiens
[6] = tested on: A549/ATCC (NSC lung cancer); assay: NCI-60 screen (SRB, 48 h); details: Homo sapiens
[7] = tested on: Ovarian Cancer subpanel; assay: NCI-60 screen, subpanel; details: Homo sapiens
[8] = tested on: TK-10 (Renal cancer); assay: NCI-60 screen (SRB, 48 h); details: Homo sapiens
[9] = tested on: T-47D (Breast cancer); assay: NCI-60 screen (SRB, 48 h); details: Homo sapiens, T47D
[10] = tested on: MCF-7 (breast carcinoma); assay: SRB cytotoxicity assay, 72 h; assay type: cell-based, human; details: MCF-7, 72 h, cut-off 30 µM
Protocol: (§1) The cytotoxicity of compounds 1–20 was evaluated by means of a colorimetric sulforhodamine B (SRB) assay. For all compounds, the EC50 values were determined for the human tumor cell lines A375 (malignant melanoma), HT29 (colorectal carcinoma), MCF-7 (breast carcinoma), A2780 (ovarian carcinoma), FaDu (hypopharyngeal carcinoma), and NIH 3T3 (non-malignant mouse fibroblasts).
(§2) In short, exponentially growing cells were seeded into 96-well plates on day 0 at the appropriate cell densities to prevent confluence of the cells during the period of experiment. After 24 h, the cells were treated with serial dilutions of the compounds (0–30 µM) for 72 h. The final concentration of DMSO never exceeded 0.5%, which was non-toxic to the cells. After a 72 h treatment, the supernatant medium from the 96-well plates was discarded, and the cells were fixed with 10% TCA. For a thorough fixation, the plates were allowed to rest at 4 °C. After fixation, the cells were washed in a strip washer. The washing was done four times with water using alternate dispensing and aspiration procedures. The plates were then dyed with 100 µL of 0.4% SRB for about 20 min. After dying, the plates were washed with 1% acetic acid to remove the excess of the dye and allowed to air-dry overnight. Tris base solution (200 µL, 10 mM) was added to each well and absorbance was measured at λ = 570 nm (using a 96 well plate reader, Tecan Spectra, Crailsheim, Germany). The percentages of surviving cells relative to untreated controls were determined.

[11] = tested on: FaDu (hypopharyngeal carcinoma); assay: SRB cytotoxicity assay, 72 h; assay type: cell-based, human; details: cut-off 30 µM
Protocol: as §1, §2

[12] = tested on: HT29 (colorectal carcinoma); assay: SRB cytotoxicity assay, 72 h; assay type: cell-based, human; details: HT29, 72 h, cut-off 30 µM
Protocol: as §1, §2

[13] = tested on: A375 (malignant melanoma); assay: SRB cytotoxicity assay, 72 h; assay type: cell-based, human; details: A375, 72 h, cut-off 30 µM
Protocol: as §1, §2

[14] = tested on: A2780 (ovarian carcinoma); assay: SRB cytotoxicity assay, 72 h; assay type: cell-based, human; details: A2780, 72 h, cut-off 30 µM
Protocol: as §1, §2

[15] = tested on: HCT-116 (Colon cancer); assay: NCI-60 screen (SRB, 48 h); details: Homo sapiens
[16] = tested on: NIH 3T3 (non-malignant mouse fibroblasts); assay: SRB cytotoxicity assay, 72 h; assay type: cell-based; details: NIH 3T3, 72 h, cut-off 30 µM
Protocol: as §1, §2

[17] = tested on: Melanoma subpanel; assay: NCI-60 screen, subpanel; details: Homo sapiens
[18] = tested on: SF-268 (CNS cancer); assay: NCI-60 screen (SRB, 48 h); details: Homo sapiens
[19] = tested on: A498 (Renal cancer); assay: NCI-60 screen (SRB, 48 h); details: Homo sapiens
[20] = tested on: 786-0 (Renal cancer); assay: NCI-60 screen (SRB, 48 h); details: Homo sapiens
[21] = tested on: UACC-62 (Melanoma); assay: NCI-60 screen (SRB, 48 h); details: Homo sapiens
[22] = tested on: SNB-75 (CNS cancer); assay: NCI-60 screen (SRB, 48 h); details: Homo sapiens
[23] = tested on: ACHN (Renal cancer); assay: NCI-60 screen (SRB, 48 h); details: Homo sapiens
[24] = tested on: DU-145 (Prostate cancer); assay: NCI-60 screen (SRB, 48 h); details: Homo sapiens

`CC1(C)CC[C@]2(CO)CC[C@]3(C)C(=CC[C@@H]4[C@@]5(C)CCCNC(C)(C)[C@@H]5CC[C@]43C)[C@@H]2C1` [Compound 3, azepanoerythrodiol] was tested, and the GI50 ([1]; HT-29) was 1.59 µM, the IC (TGI) ([1]; HT-29, 48 h, read-out: TGI) was 3.62 µM and the CC50 ([1]; HT-29, read-out: LC50) was 8.23 µM. The GI50 [2] was 2.41 µM, the IC (TGI) ([2]; 48 h, read-out: TGI) was 8.96 µM and the CC50 ([2]; read-out: LC50) was greater than 100 µM. For the same compound, the GI50 ([3]; HOP-62) was 5.89 µM, the IC (TGI) ([3]; HOP-62, 48 h, read-out: TGI) was 20.4 µM and the CC50 ([3]; HOP-62, read-out: LC50) was 58.9 µM. It also gave a GI50 ([4]; SW-620) of 1.91 µM, an IC (TGI) ([4]; SW-620, 48 h, read-out: TGI) of 4 µM and a CC50 ([4]; SW-620, read-out: LC50) of 8.35 µM. It also gave a GI50 ([5]; NCI-H522) of 2.04 µM, an IC (TGI) ([5]; NCI-H522, 48 h, read-out: TGI) of 4.19 µM and a CC50 ([5]; NCI-H522, read-out: LC50) of 8.59 µM. It also gave a GI50 ([6]; A549) of 4.62 µM, an IC (TGI) ([6]; A549, 48 h, read-out: TGI) of 17.8 µM and a CC50 ([6]; A549, read-out: LC50) of 52.4 µM. It also gave an IC (TGI) ([7]; 48 h, read-out: TGI MG_MID) of 19.1 µM, a GI50 ([7]; read-out: GI50 MG_MID) of 7.75 µM and a CC50 ([7]; read-out: LC50 MG_MID) of 45.6 µM. The GI50 ([8]; TK-10) was 4.64 µM, the IC (TGI) ([8]; TK-10, 48 h, read-out: TGI) was 16.7 µM and the CC50 ([8]; TK-10, read-out: LC50) was 49.9 µM. The GI50 [9] was 4.08 µM, the IC (TGI) ([9]; 48 h, read-out: TGI) was 16.3 µM and the CC50 ([9]; read-out: LC50) was 48.6 µM. The EC50 [10] was “n.s”, the EC50 [11] was “n.s” and the EC50 [12] was “n.s”. For the same compound, the EC50 [13] was “n.s”, the EC50 [14] was “n.s” and the GI50 ([15]; HCT-116) was 1.64 µM. For the same compound, the activity at 10 µM ([15]; HCT-116, 48 h, read-out: Growth % of the Most Sensitive Cell Lines) was -85.8%, the IC (TGI) ([15]; HCT-116, 48 h, read-out: TGI) was 3.11 µM and the CC50 ([15]; HCT-116, read-out: LC50) was 5.92 µM. The EC50 [16] was “n.s”, the IC (TGI) ([17]; 48 h, read-out: TGI MG_MID) was 4.31 µM and the GI50 ([17]; read-out: GI50 MG_MID) was 2.05 µM. The CC50 ([17]; read-out: LC50 MG_MID) was 12.2 µM, the GI50 ([18]; SF-268) was 2.9 µM and the IC (TGI) ([18]; SF-268, 48 h, read-out: TGI) was 9.77 µM. It also gave a CC50 ([18]; SF-268, read-out: LC50) of 65.6 µM, a GI50 ([19]; A498) of 16.7 µM and an IC (TGI) ([19]; A498, 48 h, read-out: TGI) of 38.1 µM. It also gave a CC50 ([19]; A498, read-out: LC50) of 86.7 µM, a GI50 ([20]; 786-0) of 2.25 µM and an IC (TGI) ([20]; 786-0, 48 h, read-out: TGI) of 4.84 µM. It also gave a CC50 ([20]; 786-0, read-out: LC50) of 12.7 µM, a GI50 ([21]; UACC-62) of 1.92 µM and an IC (TGI) ([21]; UACC-62, 48 h, read-out: TGI) of 3.93 µM. For the same compound, the CC50 ([21]; UACC-62, read-out: LC50) was 8.07 µM, the GI50 ([22]; SNB-75) was 9.84 µM and the IC (TGI) ([22]; SNB-75, 48 h, read-out: TGI) was 2.17 µM. The CC50 ([22]; SNB-75, read-out: LC50) was 47.1 µM, the GI50 [23] was 3.44 µM and the IC (TGI) ([23]; 48 h, read-out: TGI) was 11.5 µM. It also gave a CC50 ([23]; read-out: LC50) of 38.3 µM, a GI50 ([24]; DU-145) of 2.3 µM and an IC (TGI) ([24]; DU-145, 48 h, read-out: TGI) of 4.7 µM. The CC50 ([24]; DU-145, read-out: LC50) was 9.61 µM.
